# Source: patent US20180139985A1 (priority 2015, published 2018)
# Where two headings read alike, the source gives them in different places. Bridge positions count the residues as written; N and C are the ends. Square brackets hold non-standard residues; d marks the D form. Peptide text beside a SMILES is read from it. * marks the point of attachment. Ileψ(thiazoline)Cys = CC[C@H](C)[C@H](N)C1=N[C@H](C(=O)*)CS1; dOrn = NCCC[C@@H](N)C(=O)O
# Key:
# [1] = test system: Clostridium perfringens CP-013; type: in vivo, broiler chicken; details: for % Weight gain 1 to 14 d / % Weight gain 1 to 28 d / % Weight gain 14 to 28 d: [(final weight − initial weight)/initial weight] × 100; for Mean body weight (g) 1-d: day 1 (starting weight), n = 30
# Clostridium perfringens = type: in vivo, broiler chicken; details: for Mean CFU per gram of chicken feces on Day 28 (n = 24): final day of study; for Mean CFU per gram of chicken feces on Day 21 (n = 6): five days after final challenge; for Mean CFU per gram of chicken feces on Day 10 (n = 10): pre-challenge
Compound,% Weight gain 1 to 14 d ([1]; 55 ppm in feed) [%],% Weight gain 1 to 28 d ([1]; 55 ppm in feed) [%],% Weight gain 14 to 28 d ([1]; 55 ppm in feed) [%],Mean body weight (g) 1-d ([1]; 55 ppm in feed) [g],Mean CFU per gram of chicken feces on Day 28 (n = 24) (Clostridium perfringens; 55 ppm in feed) [CFU per gram],Mean CFU per gram of chicken feces on Day 21 (n = 6) (Clostridium perfringens; 55 ppm in feed),Mean CFU per gram of chicken feces on Day 10 (n = 10) (Clostridium perfringens; 55 ppm in feed),% Weight gain 1 to 14 d ([1]; 2 ppm in feed) [%],% Weight gain 1 to 28 d ([1]; 2 ppm in feed) [%],% Weight gain 14 to 28 d ([1]; 2 ppm in feed) [%],Mean body weight (g) 1-d ([1]; 2 ppm in feed) [g],Mean CFU per gram of chicken feces on Day 28 (n = 24) (Clostridium perfringens; 2 ppm in feed) [CFU per gram],Mean CFU per gram of chicken feces on Day 21 (n = 6) (Clostridium perfringens; 2 ppm in feed) [CFU per gram],Mean CFU per gram of chicken feces on Day 10 (n = 10) (Clostridium perfringens; 2 ppm in feed)
CC[C@H](C)[C@H](N)C1=N[C@H](C(=O)N[C@@H](CC(C)C)C(=O)N[C@H](CCC(=O)O)C(=O)N[C@H](C(=O)N[C@H]2CCCCNC(=O)[C@H](CC(N)=O)NC(=O)[C@@H](CC(=O)O)NC(=O)[C@H](Cc3cnc[nH]3)NC(=O)[C@@H](Cc3ccccc3)NC(=O)[C@H]([C@@H](C)CC)NC(=O)[C@@H](CCCN)NC2=O)[C@@H](C)CC)CS1 [Bacitracin] ({Ileψ(thiazoline)Cys}-L[dE]IK[dOrn]I[dF]H[dD]N; lactam 4-C),941.1,3566.0,252.1,44.4,0.0,2.5 × 10^1 ± 9.6 ^ CFU per gram,8.6 × 10^2 ± 1.6 × 10^2 CFU per gram,,,,,,,
Virginiamycin,,,,,,,,1024.7,3532.8,223.0,44.5,0.0,0.0,1.1 × 10^3 ± 2.2 × 10^2 CFU per gram
